{
  "source": "patent US20030226169A1",
  "about": "“DNA sequences encoding antifungal proteins” (priority 1995, published 2003)",
  "key": {"[1]": {"system": "Fusarium culmorum (IMI 180420)", "assay": "Antifungal growth inhibition microplate assay (photospectrometry)", "format": "cell-based", "conditions": "for F CULMORUM IC: Table 6 / FIG. 8: Rs-AFP1-based 9-mer split peptides; for F CULMORUM MIC: Table 6: Rs-AFP1-based 9-mer split peptides; for antifungal activity compared with peptide G1 (and G2), in words: 19-mer peptides, Example 7; for IC50 1/2 PDB / IC50 SMF + pH5 / IC50 SMF + pH7: Table 13: linear β2-β3 loop MPS peptides, duplo; for IC50 1/2 PDB: 2 × 10^4 spores/ml; for IC50 SMF + pH5: SMF+ (1 mM Ca2+, 50 mM K+) pH5; for IC50 SMF + pH7: SMF+ (1 mM Ca2+, 50 mM K+) pH7", "experimental": "(§1) The following fungal strains were used: Alternaria brassicicola (MUCL 20297), Ascophyta pisi (MUCL 30164), Botrytis cinerea (MUCL 30158), Fusarium culmorum (IMI 180420) and Verticillium dahliae (MUCL 19210).\n(§2) Fungi were grown on six cereal agar plates at room temperature and under white fluorescent light except for F culmorum and V dahliae which were grown in the dark. The duration of the spore harvest varied between 10 and 25 days depending on the strain. Spores were collected as follows. Five to ten ml of sterile milli-Q water was poured into each dish and the surface of the agar was rubbed with a sterile spatula to obtain a suspension containing mycelium and spores. This suspension was filtered through a sterile glasswool-plugged funnel and the filtrate containing the spores was collected in a sterile polypropylene centrifuge tube. The A brassicicola spores were suspended in sterile 0.1 Tween 20 (Merk, 822184) due to their hydrophobic nature. The spore suspensions were then washed twice by centrifugation at 2,400×g for 15 minutes and resuspended in a small volume of steril milli-Q water. The spore density was determined in a counting chamber and then adjusted to 4×10^7 spores per ml. Aliquots of the spore suspension were transferred to sterile microtubes and an equal volume of sterile 50% glycerol (Merck, 4091) was added to each tube so that a final spore suspension of 2×10^7 spores per ml in 25% glycerol was obtained. After careful mixing of the stock, the spore suspension was transferred in 100 μl aliquots to sterile microtubes and stored at −80° C.\n(§3) Antifungal activity was measured by photospectrometry as described by Broekaert et al, (1990, FEMS Microbiol Lett, 69:55-60). Tests were performed by adding 20 μl of test solution and 80 μl of a fungal spore suspension (2×10^4 spores/ml) per well in a sterile flat-bottom 96-well microtiterplate. The spore suspension was prepared by diluting the stock spore suspension ([…] in 25% glycerol) 1:1000 in half-strength potato dextrose broth. A positive growth control consisting of eight wells containing 20 μl of sterile milli-Q water and 80 μl of the fungal spore suspension was included in each test. The microtiterplates were incubated (with the lid on) in an aerated place at room temperature and under conditions of darkness for all test organisms.\n(§4) After 30 minutes of incubation (when the spores are settled on the well bottom) the optical density was measured in a microplate reader (Bio Rad 3550-UV) at 595 nm. Incubation of the microtiterplates continued until the optical density of the control microculture was between 0.250 and 0.500, which took approximately 72 hours (96 hours for V dahliae). Percentage of growth inhibition (% GI) was estimated as 100 times the ratio of the corrected absorbance of the control microculture minus the corrected absorbance of the test microculture over the corrected absorbance of the control microculture at 595 nm. The corrected absorbance values equal the absorbance at 595 nm of the culture measured after 72 or 96 hours minus the absorbance at 595 nm measured after 30 minutes.\n(§5) % GI=[(Acontrol−Atest/Acontrol]×100\n(§6) where Acontrol=(A72/96h−A30min)control\n(§7) The IC50 value is defined as the concentration that gives a 50% growth inhibition after 72 or 96 hours of incubation. The minimum inhibitory concentration (MIC) corresponds to the minimum concentration that gives 100% growth inhibition after 72 or 96 hours incubation."}, "[2]": {"system": "Ascophyta pisi (MUCL 30164)", "format": "cell-based", "conditions": "Table 6: Rs-AFP1-based 9-mer split peptides, ½ PDB", "experimental": "as §1, §2, §3, §4, §5, §6, §7"}, "[3]": {"conditions": "Table 3 / FIG. 6: Rs-AFP2-based 9-mer split peptides, ½ PDB, the source numbers peptides by N-terminal amino acid"}, "[4]": {"conditions": "Table 3: Rs-AFP2-based 9-mer split peptides, ½ PDB, duplicate"}, "[5]": {"conditions": "½ PDB, the source numbers peptides by N-terminal amino acid"}, "[6]": {"conditions": "Table 10: medium 1/16 PDB, one test, fungus not named in Example 7"}, "[7]": {"conditions": "Table 10: medium ½ PDB, one test, fungus not named in Example 7"}},
  "note": "Non-standard residues stand in square brackets, D forms with d. Residues, ends and D or L forms follow the SMILES beside them. Abu = CC[C@H](N)C(=O)O",
  "data": [
    {"compound": "CC[C@H](C)[C@H](NC(=O)[C@H](CS)NC(=O)[C@H](CCCCN)NC(=O)[C@H](Cc1c[nH]cn1)NC(=O)[C@H](C)NC(=O)[C@@H]1CCCN1C(C)=O)C(=O)N[C@@H](CS)C(=O)N[C@@H](Cc1ccc(O)cc1)C(=O)N[C@@H](Cc1ccccc1)C(N)=O", "note": "[compound 87] (Ac-PAHKCICYF-NH2)", "values": [
      {"measurement": "IC50", "setting": "[1]; [3]", "result": 39, "unit": "µg/mL"},
      {"measurement": "MIC", "setting": "[1]; [4]", "result": 50, "unit": "µg/mL"},
      {"measurement": "F CULMORUM IC", "setting": "[1]; [5]", "result": 28, "unit": "µg/mL"},
      {"measurement": "F CULMORUM MIC", "setting": "[1]; ½ PDB", "result": 37.5, "unit": "µg/mL"},
      {"measurement": "A PISI MIC", "setting": "[2]", "result": 50, "unit": "µg/mL"},
      {"measurement": "A PISI IC", "setting": "[2]; the source numbers peptides by N-terminal amino acid", "result": 31, "unit": "µg/mL"}
    ]},
    {"compound": "CC[C@H](NC(=O)[C@H](C)NC(=O)CNC(=O)[C@H](Cc1c[nH]cn1)NC(=O)[C@H](CO)NC(=O)[C@H](C)NC(C)=O)C(=O)N[C@@H](Cc1c[nH]cn1)C(=O)N[C@@H](CCCCN)C(=O)N[C@@H](CCCNC(=N)N)C(=O)N[C@@H](CCC(=O)O)C(=O)N[C@@H](CC(N)=O)C(=O)N[C@@H](Cc1c[nH]cn1)C(=O)N[C@@H](Cc1c[nH]c2ccccc12)C(=O)N[C@@H](CCCCN)C(=O)N[C@@H](CC)C(=O)N[C@@H](Cc1ccccc1)C(=O)N[C@@H](CC)C(=O)N[C@@H](Cc1ccc(O)cc1)C(=O)N[C@@H](Cc1ccccc1)C(N)=O", "note": "[Peptide J1, ASHGABHKRENHWKBFBYF] (Ac-ASHGA[Abu]HKRENHWK[Abu]F[Abu]YF-NH2)", "values": [
      {"measurement": "antifungal activity compared with peptide G1 (and G2), in words", "setting": "[1]", "result": "even more active"},
      {"measurement": "IC50", "setting": "[1]; [6]", "result": 5, "unit": "µg/mL"},
      {"measurement": "MIC", "setting": "[1]; [6]", "result": 6.25, "unit": "µg/mL"},
      {"measurement": "IC50", "setting": "[1]; [7]", "result": 9, "unit": "µg/mL"},
      {"measurement": "MIC", "setting": "[1]; [7]", "result": 12.5, "unit": "µg/mL"},
      {"measurement": "IC50 1/2 PDB", "setting": "[1]", "result": "9.1 ± 0.6", "unit": "µg/mL"},
      {"measurement": "IC50 SMF + pH5", "setting": "[1]", "result": "47 ± 33", "unit": "μg/ml"},
      {"measurement": "IC50 SMF + pH7", "setting": "[1]", "result": "173.4 ± 0.2", "unit": "μg/ml"},
      {"measurement": "activity compared to Rs-AFP counterpart G2", "setting": "[1]; ½ PDB", "result": "almost two-fold higher activity"}
    ]},
    {"compound": "CC[C@H](NC(=O)[C@H](CO)NC(=O)CNC(=O)[C@H](Cc1c[nH]cn1)NC(=O)[C@H](CCCNC(=N)N)NC(=O)[C@H](C)NC(=O)[C@H](CCCCN)NC(C)=O)C(=O)N[C@@H](CC(N)=O)C(=O)N[C@@H](Cc1ccc(O)cc1)C(=O)N[C@H](C(=O)N[C@@H](Cc1ccccc1)C(=O)N1CCC[C@H]1C(=O)N[C@@H](C)C(=O)N[C@@H](Cc1c[nH]cn1)C(=O)N[C@@H](CCCCN)C(=O)N[C@@H](CC)C(=O)N[C@H](C(=O)N[C@@H](CC)C(=O)N[C@@H](Cc1ccc(O)cc1)C(=O)N[C@@H](Cc1ccccc1)C(N)=O)[C@@H](C)CC)C(C)C", "note": "[Peptide N1, KARHGSBNYVFPAHKBIBYF] (Ac-KARHGS[Abu]NYVFPAHK[Abu]I[Abu]YF-NH2)", "values": [
      {"measurement": "IC50 1/2 PDB", "setting": "[1]", "result": "14.0 ± 6.2", "unit": "µg/mL"},
      {"measurement": "IC50 SMF + pH5", "setting": "[1]", "result": "27.0 ± 7.7", "unit": "μg/ml"},
      {"measurement": "IC50 SMF + pH7", "setting": "[1]", "result": "142.6 ± 13.6", "unit": "μg/ml"}
    ]},
    {"compound": "Ac-IRLEKARHGSCN-NH2 [compound 115]", "values": [
      {"measurement": "IC50", "setting": "[1]; Table 4 / FIG. 6: Rs-AFP2-based 12-mer split peptides, ½ PDB, the source numbers peptides by N-terminal amino acid", "result": 203, "unit": "µg/mL"},
      {"measurement": "MIC", "setting": "[1]; Table 4: Rs-AFP2-based 12-mer split peptides, ½ PDB, triplicate", "result": 300, "unit": "µg/mL"}
    ]},
    {"compound": "CC[C@H](NC(=O)[C@H](C)NC(=O)CNC(=O)[C@H](Cc1c[nH]cn1)NC(=O)[C@H](C)NC(=O)[C@H](C)NC(C)=O)C(=O)N[C@@H](Cc1c[nH]cn1)C(=O)N[C@H](C(=O)N[C@@H](CCCNC(=N)N)C(=O)N[C@@H](CC(N)=O)C(=O)NCC(=O)N[C@@H](CCCCN)C(=O)N[C@@H](Cc1c[nH]cn1)C(=O)N[C@@H](CCSC)C(=O)N[C@@H](CC)C(=O)N[C@@H](Cc1ccccc1)C(=O)N[C@@H](CC)C(=O)N[C@@H](Cc1ccc(O)cc1)C(=O)N[C@@H](Cc1ccccc1)C(N)=O)C(C)C", "note": "[Peptide N5, AAHGABHVRNGKHMBFBYF] (Ac-AAHGA[Abu]HVRNGKHM[Abu]F[Abu]YF-NH2)", "values": [
      {"measurement": "IC50 1/2 PDB", "setting": "[1]", "result": "8.0 ± 0.4", "unit": "µg/mL"},
      {"measurement": "IC50 SMF + pH5", "setting": "[1]", "result": "20.9 ± 1.8", "unit": "μg/ml"},
      {"measurement": "IC50 SMF + pH7", "setting": "[1]", "result": "24.2 ± 0.2", "unit": "μg/ml"},
      {"measurement": "activity compared to Rs-AFP counterpart G2", "setting": "[1]; ½ PDB", "result": "almost two-fold higher activity"}
    ]},
    {"compound": "CC[C@H](NC(=O)[C@H](CO)NC(=O)CNC(=O)[C@H](Cc1c[nH]cn1)NC(=O)[C@H](CCCNC(=N)N)NC(=O)[C@H](C)NC(C)=O)C(=O)N[C@@H](CC(N)=O)C(=O)N[C@@H](Cc1ccc(O)cc1)C(=O)N[C@H](C(=O)N[C@@H](Cc1ccccc1)C(=O)N1CCC[C@H]1C(=O)N[C@@H](C)C(=O)N[C@@H](Cc1c[nH]cn1)C(=O)N[C@@H](CCCCN)C(=O)N[C@@H](CC)C(=O)N[C@H](C(=O)N[C@@H](CC)C(=O)N[C@@H](Cc1ccc(O)cc1)C(=O)N[C@@H](Cc1ccccc1)C(N)=O)[C@@H](C)CC)C(C)C", "note": "[Peptide G2, ARHGSBNYVFPAHKBIBYF] (Ac-ARHGS[Abu]NYVFPAHK[Abu]I[Abu]YF-NH2)", "values": [
      {"measurement": "antifungal activity compared with peptide G1 (and G2), in words", "setting": "[1]", "result": "does not affect antifungal activity"},
      {"measurement": "IC50", "setting": "[1]; [6]", "result": 10, "unit": "µg/mL"},
      {"measurement": "MIC", "setting": "[1]; [6]", "result": 12.5, "unit": "µg/mL"},
      {"measurement": "IC50", "setting": "[1]; [7]", "result": 17, "unit": "µg/mL"},
      {"measurement": "MIC", "setting": "[1]; [7]", "result": 25, "unit": "µg/mL"},
      {"measurement": "IC50 1/2 PDB", "setting": "[1]", "result": "16.0 ± 1.2", "unit": "µg/mL"},
      {"measurement": "IC50 SMF + pH5", "setting": "[1]", "result": "50.0 ± 6.0", "unit": "μg/ml"},
      {"measurement": "IC50 SMF + pH7", "setting": "[1]", "result": ">400", "unit": "μg/ml"}
    ]},
    {"compound": "Ac-LEKARHGSC-NH2 [compound 74]", "values": [
      {"measurement": "IC50", "setting": "[1]; [3]", "result": 270, "unit": "µg/mL"},
      {"measurement": "MIC", "setting": "[1]; [4]", "result": 400, "unit": "µg/mL"},
      {"measurement": "F CULMORUM IC", "setting": "[1]; [5]", "result": 370, "unit": "µg/mL"},
      {"measurement": "F CULMORUM MIC", "setting": "[1]; ½ PDB", "result": ">400", "unit": "µg/mL"}
    ]}
  ]
}
